From US12660819B2, “Herbicidal derivatives” (SYNGENTA CROP PROTECTION AG, priority 2020, dated 2026)

Assays:
Assay type in all cases: in vivo
Setaria faberi (SETFA) [1] = test: Pre-emergence Test (glasshouse, percentage damage to the plant); details: 1000 g/ha unless otherwise stated, five-point scale
Zea mays (ZEAMX) [2] = test: as above; details: 1000 g/ha unless otherwise stated, five-point scale
[3] = system: Echinochloa crus-galli (ECHCG); test: as above; details: 1000 g/ha unless otherwise stated, five-point scale
Setaria faberi (SETFA) [4] = test: Post-emergence Test (glasshouse, percentage damage to the plant); details: post-emergence spray, 1000 g/ha unless otherwise stated, evaluated after 13 days
Experimental: (§1) Seeds of a variety of test species are sown in standard soil in pots (Amaranthus retoflexus (AMARE), Solanum nigrum (SOLNI), Setaria faberi (SETFA), Lolium perenne (LOLPE), Echinochloa crus-galli (ECHCG), Ipomoea hederacea (IPOHE), Abutilon theophrasti (ABUTH), Zea mays (ZEAMX), Amaranthus palmeri (AMAPA). After 8 days cultivation under controlled conditions in a glasshouse (at 24° C./16° C., day/night; 14 hours light; 65% humidity), the plants are sprayed with an aqueous spray solution derived from the formulation of the technical active ingredient in acetone/water (50:50) solution containing 0.5% Tween 20 (polyoxyethelyene sorbitan monolaurate, CAS RN 9005-64-5). Compounds are applied at 1000 g/ha unless otherwise stated. The test plants are then grown in a glasshouse under controlled conditions in a glasshouse (at 24° C./16° C., day/night; 14 hours light; 65% humidity) and watered twice daily. After 13 days the test is evaluated for the percentage damage caused to the plant. The biological activities are shown in the following table on a five-point scale (5=81-100%; 4=61-80%; 3=41-60%; 2=21-40%; 1=0-20%).

Zea mays (ZEAMX) [5] = test: as above; details: post-emergence spray, 1000 g/ha unless otherwise stated, evaluated after 13 days
Experimental: as §1

[6] = system: Amaranthus retoflexus (AMARE); test: as above; details: post-emergence spray, 1000 g/ha unless otherwise stated, evaluated after 13 days
Experimental: as §1

[7] = system: Ipomoea hederacea (IPOHE); test: as above; details: post-emergence spray, 1000 g/ha unless otherwise stated, evaluated after 13 days
Experimental: as §1

[8] = system: Ipomoea hederacea (IPOHE); test: Pre-emergence Test (glasshouse, percentage damage to the plant); details: 1000 g/ha unless otherwise stated, five-point scale
[9] = system: Amaranthus retoflexus (AMARE); test: as above; details: 1000 g/ha unless otherwise stated, five-point scale
[10] = system: Abutilon theophrasti (ABUTH); test: as above; details: 1000 g/ha unless otherwise stated, five-point scale

| SMILES | percentage damage to the plant, SETFA (Setaria faberi (SETFA) [1]) | percentage damage to the plant, ZEAMX (Zea mays (ZEAMX) [2]) | percentage damage to the plant, ECHCG [3] | Post-emergence Test SETFA, percentage damage to the plant (five-point scale) (Setaria faberi (SETFA) [4]) | Post-emergence Test ZEAMX, percentage damage to the plant (five-point scale) (Zea mays (ZEAMX) [5]) | Post-emergence Test AMARE, percentage damage to the plant (five-point scale) [6] | Post-emergence Test IPOHE, percentage damage to the plant (five-point scale) [7] | percentage damage to the plant, IPOHE [8] | percentage damage to the plant, AMARE [9] | percentage damage to the plant, ABUTH [10] |
| --- | --- | --- | --- | --- | --- | --- | --- | --- | --- | --- |
| CCn1c(C)c(-c2ccc(Cl)cc2OC)c(=O)c(C(=O)O)c1-c1ccc(Cl)cc1 [Compound 184, 5-(4-chloro-2-methoxy-phenyl)-2-(4-chlorophenyl)-1-ethyl-6-methyl-4-oxo-pyridine-3-carboxylic acid] | 1 (1=0-20%) | 0 | 1 (1=0-20%) | 5 (5=81-100%) | 3 (3=41-60%) | 4 (4=61-80%) | 3 (3=41-60%) | 0 | 1 (1=0-20%) | 1 (1=0-20%) |
| CCn1c(C)c(-c2cc(Cl)ccc2Cl)c(=O)c(C(=O)O)c1-c1ccc(Cl)cc1 [Compound 185, 2-(4-chlorophenyl)-5-(2,5-dichlorophenyl)-1-ethyl-6-methyl-4-oxo-pyridine-3-carboxylic acid] | 0 | 0 | 0 | 3 (3=41-60%) | 1 (1=0-20%) | 3 (3=41-60%) | 2 (2=21-40%) | 0 | 0 | 0 |
| CCn1c(C)c(-c2ccc(F)cc2OC)c(=O)c(C(=O)O)c1-c1ccc(Cl)cc1 [Compound 186, 2-(4-chlorophenyl)-1-ethyl-5-(4-fluoro-2-methoxy-phenyl)-6-methyl-4-oxo-pyridine-3-carboxylic acid] | 2 (2=21-40%) | 0 | 1 (1=0-20%) | 3 (3=41-60%) | 2 (2=21-40%) | 1 (1=0-20%) | 2 (2=21-40%) | 1 (1=0-20%) | 1 (1=0-20%) | 3 (3=41-60%) |
| CCn1c(C)c(-c2ccc(C#N)c(C(F)(F)F)c2)c(=O)c(C(=O)O)c1-c1ccc(Cl)cc1 [Compound 187, 2-(4-chlorophenyl)-5-[4-cyano-3-(trifluoromethyl)phenyl]-1-ethyl-6-methyl-4-oxo-pyridine-3-carboxylic acid] | 2 (2=21-40%) | 1 (1=0-20%) | 1 (1=0-20%) | 2 (2=21-40%) | 2 (2=21-40%) | 3 (3=41-60%) | 3 (3=41-60%) | 2 (2=21-40%) | 1 (1=0-20%) | 3 (3=41-60%) |
| CCn1c(C)c(-c2cc(Cl)cc(Cl)c2)c(=O)c(C(=O)O)c1-c1ccc(Cl)cc1 [Compound 188, 2-(4-chlorophenyl)-5-(3,5-dichlorophenyl)-1-ethyl-6-methyl-4-oxo-pyridine-3-carboxylic acid] | 0 | 0 | 0 | 0 | 1 (1=0-20%) | 0 | 1 (1=0-20%) | 0 | 0 | 0 |
| CCn1c(C)c(-c2cc(OC)ccc2F)c(=O)c(C(=O)O)c1-c1ccc(Cl)cc1 [Compound 189, 2-(4-chlorophenyl)-1-ethyl-5-(2-fluoro-5-methoxy-phenyl)-6-methyl-4-oxo-pyridine-3-carboxylic acid] | 2 (2=21-40%) | 0 | 2 (2=21-40%) | 2 (2=21-40%) | 1 (1=0-20%) | 2 (2=21-40%) | 1 (1=0-20%) | 1 (1=0-20%) | 1 (1=0-20%) | 3 (3=41-60%) |
| CCn1c(C)c(-c2cc(F)cc(C#N)c2)c(=O)c(C(=O)O)c1-c1ccc(Cl)cc1 [Compound 190, 2-(4-chlorophenyl)-5-(3-cyano-5-fluoro-phenyl)-1-ethyl-6-methyl-4-oxo-pyridine-3-carboxylic acid] | 2 (2=21-40%) | 2 (2=21-40%) | 2 (2=21-40%) | 2 (2=21-40%) | 1 (1=0-20%) | 1 (1=0-20%) | 1 (1=0-20%) | 1 (1=0-20%) | 1 (1=0-20%) | 0 |
| CCn1c(C)c(-c2ccc(Cl)cc2Cl)c(=O)c(C(=O)O)c1-c1ccc(Cl)cc1 [Compound 193, 2-(4-chlorophenyl)-5-(2,4-dichlorophenyl)-1-ethyl-6-methyl-4-oxo-pyridine-3-carboxylic acid] | 2 (2=21-40%) | 1 (1=0-20%) | 1 (1=0-20%) | 4 (4=61-80%) | 2 (2=21-40%) | 5 (5=81-100%) | 3 (3=41-60%) | 0 | 2 (2=21-40%) | 2 (2=21-40%) |
| CCn1c(C)c(-c2ccc([N+](=O)[O-])cc2)c(=O)c(C(=O)O)c1-c1ccc(Cl)cc1 [Compound 194, 2-(4-chlorophenyl)-1-ethyl-6-methyl-5-(4-nitrophenyl)-4-oxo-pyridine-3-carboxylic acid] | 0 | 2 (2=21-40%) | 0 | 2 (2=21-40%) | 1 (1=0-20%) | 0 | 0 | 0 | 0 | 0 |
